Test results: patent US20110269790A1, “NOVEL THIENOPYRIDINES AS PHARMACOLOGICALLY ACTIVE AGENTS” (priority 2009, published 2011)

System: Wistar rats
Experiment: Dextran induced rat paw edema model
Format: in vivo
Conditions: 50 mg/kg oral, 3 hrs after Dextran
Protocol: Anti-inflammatory activity of test compounds was evaluated in Wistar rats employing method of Winter et al (1963) and Diwan et al (1989). Over night fasted rats were grouped into different test groups and standard group consisting 6 animals in each group. Test compounds were administered orally one hour before dextran challenge as gum acacia suspension. Animals in the standard group received Indomethacin at dose of 10 mg/kg. After one hour dextran was injected into the right hind paw by sub plantar route. A zero hour paw volume was measured for the rats using digital plethysmometer (Ugo Basile, Italy) before the administration of Dextran for all groups. Paw volumes were again measured 3 hrs after the challenge of Dextran. The percent inhibition of paw volume for each rat in treated groups was calculated by comparing with mean paw volume of control group and expressed as mean (±SE) percent inhibition of paw volume for each test group.

Row | SMILES | % Inhibition [%] | Percentage Swelling (50 mg/kg)
1 | Cc1sc2nc3c(c(N)c2c1C)CCCCC3 [BN-4, 2,3-dimethyl-6,7,8,9-tetrahydro-5H-cyclohepta[b]thieno[3,2-e]pyridin-4-amine] | 12.17 ± 1.14 | 69.96 ± 4.06 %
2 | Nc1c2c(nc3sc4c(c13)CCC4)CCCC2 [BN-14, 2,3,6,7,8,9-Hexahydro-1H-cyclopenta[4,5]thieno[2,3-b]quinolin-10-amine] | 21.29 ± 4.69 | 65.36 ± 2.91a %
3 | Nc1c2c(nc3sc4c(c13)CCC4)CCCCC2 [BN-16, 1,2,3,6,7,8,9,10-Octahydrocyclohepta[b]cyclopenta[4,5]thieno[3,2-e]pyridine-11-amine] | 18.30 ± 3.25 | 61.80 ± 1.18a %

Same assay, conditions: 100 mg/kg oral, 3 hrs after Dextran

Row | SMILES | % Inhibition [%] | Percentage Swelling (100 mg/kg) [%]
4 | Cc1sc2nc3c(c(N)c2c1C)CCCCC3 [BN-4, 2,3-dimethyl-6,7,8,9-tetrahydro-5H-cyclohepta[b]thieno[3,2-e]pyridin-4-amine] | 13.57 ± 1.71 | 50.01 ± 1.09
5 | Nc1c2c(nc3sc4c(c13)CCC4)CCCC2 [BN-14, 2,3,6,7,8,9-Hexahydro-1H-cyclopenta[4,5]thieno[2,3-b]quinolin-10-amine] | 24.83 ± 0.47 | 41.63 ± 2.78
6 | Nc1c2c(nc3sc4c(c13)CCC4)CCCCC2 [BN-16, 1,2,3,6,7,8,9,10-Octahydrocyclohepta[b]cyclopenta[4,5]thieno[3,2-e]pyridine-11-amine] | 30.90 ± 4.32 | 40.09 ± 4.24

Same assay, conditions: 200 mg/kg oral, 3 hrs after Dextran

Row | SMILES | % Inhibition [%] | Percentage Swelling (200 mg/kg) [%]
7 | Cc1sc2nc3c(c(N)c2c1C)CCCCC3 [BN-4, 2,3-dimethyl-6,7,8,9-tetrahydro-5H-cyclohepta[b]thieno[3,2-e]pyridin-4-amine] | 32.71 ± 4.45 | 38.52 ± 2.60
8 | Nc1c2c(nc3sc4c(c13)CCC4)CCCC2 [BN-14, 2,3,6,7,8,9-Hexahydro-1H-cyclopenta[4,5]thieno[2,3-b]quinolin-10-amine] | 38.54 ± 4.26 | 36.09 ± 2.79
9 | Nc1c2c(nc3sc4c(c13)CCC4)CCCCC2 [BN-16, 1,2,3,6,7,8,9,10-Octahydrocyclohepta[b]cyclopenta[4,5]thieno[3,2-e]pyridine-11-amine] | 41.00 ± 3.86 | 31.85 ± 2.09

System: rats
Experiment: Ulcerogenic assay
Format: in vivo, rat
Conditions: BN compounds 200 mg/kg oral, Indomethacin 30 mg/kg; arbitrary scale 0 (no lesions) to 4 (mucosa full of lesions)
Protocol: The method of Cashin et al., (1979) was employed. Food was withheld from the animals for 18 hours prior to the experiment. The fasted animals (n=4) received the compounds BN-4, BN-14 and BN-16 as gum acacia suspension by oral route at the dose of 100,200 mg/kg. Indomethacin control animals received the drug at the dose of 30 mg/kg. Six hours later, rats were killed and the stomachs removed and open along the lesser curvature. The opened stomach was washed with normal saline and observed for ulceration. Lesions on the mucosal surface was scored according to arbitrary scale: 0 No lesion; 0.5=hyperemia; 1=one or two lesions; 2=severe lesions; 3=very severe lesions; 4=Mucosal full of lesions (Bani et al., 2000). […] But indomethacin group animals show severe ulceration in stomach portion. More importantly, gastric ulcer, which is a common side effect of NSAIDS, was totally absent in stomach of compound treated rat group. Since enhanced leukotrine production plays a role in development of gastrointestinal damage from cyclooxygenase inhibition by NSAIDS (Rainsford et al., 1993; Gyomber et al., 1996) and all the compounds have shown potent inhibitory action on 5-LOX inhibition (Arachidonic induced paw edema model) along with cox inhibition (Carrageenan induced paw edema model), the gastric ulcer sparing effect of compounds may be partly due to their effect on 5-LOX inhibition.

Row | SMILES | Ulcer Score
10 | Nc1c2c(nc3sc4c(c13)CCC4)CCCC2 [BN-14, 2,3,6,7,8,9-Hexahydro-1H-cyclopenta[4,5]thieno[2,3-b]quinolin-10-amine] | 0.37 ± 0.10
11 | Nc1c2c(nc3sc4c(c13)CCC4)CCCCC2 [BN-16, 1,2,3,6,7,8,9,10-Octahydrocyclohepta[b]cyclopenta[4,5]thieno[3,2-e]pyridine-11-amine] | 0.25 ± 0.12
12 | COc1ccc2c(c1)c(CC(=O)O)c(C)n2C(=O)c1ccc(Cl)cc1 [Indomethacin, reference compound] | 2.25 ± 0.41

Same assay, conditions: BN compounds 200 mg/kg oral, Indomethacin 30 mg/kg; fasted rats, six hours after dosing, n=4

Row | SMILES | Ulcer Incidence
13 | Nc1c2c(nc3sc4c(c13)CCC4)CCCC2 [BN-14, 2,3,6,7,8,9-Hexahydro-1H-cyclopenta[4,5]thieno[2,3-b]quinolin-10-amine] | ¼
14 | Nc1c2c(nc3sc4c(c13)CCC4)CCCCC2 [BN-16, 1,2,3,6,7,8,9,10-Octahydrocyclohepta[b]cyclopenta[4,5]thieno[3,2-e]pyridine-11-amine] | 0/4
15 | COc1ccc2c(c1)c(CC(=O)O)c(C)n2C(=O)c1ccc(Cl)cc1 [Indomethacin, reference compound] | 4/4

System: TNF-α
Experiment: In vitro TNF-α estimation in LPS treated RAW 264.7 macrophages (ELISA)
Format: cell-based, mouse
Conditions: 12.5 μg/ml with LPS
Protocol: (§1) Cell Culture and Treatment: The RAW 264.7 (mouse macrophages, national center for cellular sciences) cells were grown in plastic T-25 culture flask in Dulbeccos modified eagles medium (DMEM) without phenol red supplemented with 10% heat activated serum (heating at 57° C. for 30 minutes, 100 μg per ml penicillin, 200 μg per ml streptomycin, 2 mmol L-glutamine, 1% antibiotic/Anti mycotic solution (GIBCO/SRL) under 5% co2 with 85% relative humidity at 37° C. After 2-3 days cells were removed from the culture flask by tripsinizing the cells with Trypsin EDTA solution. Cell count and viability was performed using a standard Trypan blue dye exclusion method. The cell concentration was adjusted to 1×10^5 cells per ml in each well with the same media in the 12 well plates. After 24 hrs incubation the media was removed from each well replaced with a fresh one containing different concentrations (50 μg, 25 μg, 12.5 μg) of the synthetic compounds BN-4, BN-14 and BN-16 along with 10 μg/ml LPS, where as normal control (PBS) and positive controls (Dexa, Roli) LPS (10 μg/ml), were added. 200 μl of media from each well was collected at 6 hrs for the estimation of TNF-α and after 24 hrs for Nitric Oxide respectively. The adherent cells, which remained after removing the media was subjected to […] for determining the cytotoxicity of compounds at selected concentrations
Measurement of TNF-α: TNF-α was assayed by ELISA kit supplied by R&D systems. A volume of 100 μl of 0.8 μg per ml, goat anti mouse TNF-a in PBS was coated and incubated overnight at room temperature. Plates were washed 3 times with PBS/0.05% Tween 20 and blocked by the addition of 1% BSA in PBS at room temperature for 2 hrs. Plates were washed 3 times again with same buffer and 100 μl of samples and standards (Recombinant mouse TNF-α with 1% BSA in PBS) of different concentrations were added in triplicates and incubated for 2 hrs at RT. After washing 100 μl of goat anti mouse TNF-α conjugated with HRP were added and incubated for 2 hrs at RT. Then 100 μl of TMB substrate ([…] with H2O2) was added to all wells. After 20 min stop solution was added to all the wells, and measured the optical density at 450 nm. TNF-α concentration was calculated from standard curve by regression analysis.

Row | SMILES | Inhibition of TNF-a production
16 | Cc1sc2nc3c(c(N)c2c1C)CCCCC3 [BN-4, 2,3-dimethyl-6,7,8,9-tetrahydro-5H-cyclohepta[b]thieno[3,2-e]pyridin-4-amine] | not shown inhibition

Same assay, conditions: 50 μg/ml, 25 μg/ml, 12.5 μg/ml with LPS 10 μg/ml, 6 hrs

Row | SMILES | Inhibition of TNF-a production
17 | Cc1sc2nc3c(c(N)c2c1C)CCCCC3 [BN-4, 2,3-dimethyl-6,7,8,9-tetrahydro-5H-cyclohepta[b]thieno[3,2-e]pyridin-4-amine] | good inhibition
18 | Nc1c2c(nc3sc4c(c13)CCC4)CCCC2 [BN-14, 2,3,6,7,8,9-Hexahydro-1H-cyclopenta[4,5]thieno[2,3-b]quinolin-10-amine] | good inhibition
19 | Nc1c2c(nc3sc4c(c13)CCC4)CCCCC2 [BN-16, 1,2,3,6,7,8,9,10-Octahydrocyclohepta[b]cyclopenta[4,5]thieno[3,2-e]pyridine-11-amine] | good inhibition

System: Nitric oxide
Experiment: Nitric oxide (nitrite, Griess) estimation in LPS treated RAW 264.7 macrophages
Format: cell-based, mouse
Conditions: 24 hrs, different concentrations, vs LPS treated control
Protocol: as §1
Measurement of Nitrite: For determination of nitric oxide concentration, the stable conversion product of nitric oxide, nitrite (NO^2−) was measured using the Griess reagent (Chi et, al., 2001). After 24 hrs incubation a volume of 100 μl of supernatant from each well of cell culture plates was transferred to 96 well micro plate and equal volume of Griess reagent (1% sulphanilamide, 0.1% N-(1-naphthyl ethylene diamine hydrochloride), 2.5% H3PO4) was then added to the supernatant at room temperature. The absorbance at 570 nm was determined in multi detection Microplate reader after 10 min. Nitric oxide concentration was calculated using standard curve.

Row | SMILES | Release of NO from murine macrophage cell line
20 | Cc1sc2nc3c(c(N)c2c1C)CCCCC3 [BN-4, 2,3-dimethyl-6,7,8,9-tetrahydro-5H-cyclohepta[b]thieno[3,2-e]pyridin-4-amine] | significantly (p<0.01) suppressed
21 | Nc1c2c(nc3sc4c(c13)CCC4)CCCC2 [BN-14, 2,3,6,7,8,9-Hexahydro-1H-cyclopenta[4,5]thieno[2,3-b]quinolin-10-amine] | significantly (p<0.01) suppressed
22 | Nc1c2c(nc3sc4c(c13)CCC4)CCCCC2 [BN-16, 1,2,3,6,7,8,9,10-Octahydrocyclohepta[b]cyclopenta[4,5]thieno[3,2-e]pyridine-11-amine] | significantly (p<0.01) suppressed

System: IL-1β
Experiment: IL-1β assay in murine macrophage cell line
Format: cell-based, mouse
Conditions: 50, 25, 12.5 μg/ml with LPS
Protocol: as §1
To determine the mechanism of action all test compounds were screened for invitro anti-inflammatory methods, which include TNF-a and IL-1b and Nitric Oxide. […] TNF-a is a pleiotropic cytokine, which plays a critical role in both acute and chronic inflammation (Holtzmann et al., 2002). Several inflammagens have the ability of inducing the synthesis of TNF-a. Formation of a number of small molecular mediators of inflammation is linked with TNF-a and contributes to the range of mediators that critically control inflammation. TNF-a facilitates inflammatory cell infiltration by promoting the adhesion of neutrophils and lymphocytes to endothelial cells (Dinarello, 1997).

Row | SMILES | Production of IL-1β from murine macrophage cell line
23 | Cc1sc2nc3c(c(N)c2c1C)CCCCC3 [BN-4, 2,3-dimethyl-6,7,8,9-tetrahydro-5H-cyclohepta[b]thieno[3,2-e]pyridin-4-amine] | inhibitory effect
24 | Nc1c2c(nc3sc4c(c13)CCC4)CCCC2 [BN-14, 2,3,6,7,8,9-Hexahydro-1H-cyclopenta[4,5]thieno[2,3-b]quinolin-10-amine] | inhibitory effect
25 | Nc1c2c(nc3sc4c(c13)CCC4)CCCCC2 [BN-16, 1,2,3,6,7,8,9,10-Octahydrocyclohepta[b]cyclopenta[4,5]thieno[3,2-e]pyridine-11-amine] | inhibitory effect

System: IL-1β
Experiment: IL-1β in paw tissue and serum, collagen induced arthritis
Format: in vivo, rat
Conditions: collagen induced study, day 24, 100 mg/kg/day
Text: It is believed that these proinflammatory cytokines help to propagate a local or systemic inflammatory process, and to induce biosynthesis and secretion of metalloproteinases (MMPs) and osteoclasts that critically contribute to degradation of extracellular matrix and erosion of bone respectively (Burger et al., 1998; Gravallese and Goldring, 2000; Smolen and Steiner, 2003).
On termination day blood samples were collected and serum was used for the estimation of Both TNF-α and IL-1β levels in FCA and Collagen induced studies. Both the parameters were determined using ELISA kits.

Row | SMILES | Inhibition of IL-1β in paw tissues
26 | Cc1sc2nc3c(c(N)c2c1C)CCCCC3 [BN-4, 2,3-dimethyl-6,7,8,9-tetrahydro-5H-cyclohepta[b]thieno[3,2-e]pyridin-4-amine] | more significant inhibition (p<0.01)
27 | Nc1c2c(nc3sc4c(c13)CCC4)CCCC2 [BN-14, 2,3,6,7,8,9-Hexahydro-1H-cyclopenta[4,5]thieno[2,3-b]quinolin-10-amine] | more significant inhibition (p<0.01)
28 | Nc1c2c(nc3sc4c(c13)CCC4)CCCCC2 [BN-16, 1,2,3,6,7,8,9,10-Octahydrocyclohepta[b]cyclopenta[4,5]thieno[3,2-e]pyridine-11-amine] | moderate inhibition (p<0.05)
29 | COc1ccc2c(c1)c(CC(=O)O)c(C)n2C(=O)c1ccc(Cl)cc1 [Indomethacin, reference compound] | moderate inhibition (p<0.05)

Same assay, conditions: collagen study, vs arthritic control

Row | SMILES | Reduction of IL-1β levels in serum
30 | Cc1sc2nc3c(c(N)c2c1C)CCCCC3 [BN-4, 2,3-dimethyl-6,7,8,9-tetrahydro-5H-cyclohepta[b]thieno[3,2-e]pyridin-4-amine] | more significantly (p<0.01) reduced
31 | Nc1c2c(nc3sc4c(c13)CCC4)CCCC2 [BN-14, 2,3,6,7,8,9-Hexahydro-1H-cyclopenta[4,5]thieno[2,3-b]quinolin-10-amine] | moderate inhibition (p<0.05)
32 | Nc1c2c(nc3sc4c(c13)CCC4)CCCCC2 [BN-16, 1,2,3,6,7,8,9,10-Octahydrocyclohepta[b]cyclopenta[4,5]thieno[3,2-e]pyridine-11-amine] | more significantly (p<0.01) reduced
33 | COc1ccc2c(c1)c(CC(=O)O)c(C)n2C(=O)c1ccc(Cl)cc1 [Indomethacin, reference compound] | moderate inhibition (p<0.05)
